Experimental data taken from the supplement of paper PMC10307832.

Tests used:
Assay in all cases: relative viability (nuclei count vs DMSO), 5 days (fraction); higher = more cells survive
FG-4592 + Crizotinib = compound: Cc1nc(C(=O)NCC(=O)O)c(O)c2ccc(Oc3ccccc3)cc12 [FG-4592] + C[C@@H](Oc1cc(-c2cnn(C3CCNCC3)c2)cnc1N)c1c(Cl)ccc(F)c1Cl [Crizotinib] (partner 1 µM)
Method in brief: (§1)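 A single step with final 0.05% Triton X-100, 1% formaldehyde and 1 ug/ml Hoechst fixed the cells and stained nuclei 5 days after treatment. Lung cancer cell lines in 1536-well plates had been treated by pin tool the day after seeding with one drug alone or a fixed anchor-drug dose plus five library-drug doses (not always all listed) in √10 steps, and nuclei were counted on 4× images. Relative viability is the ratio of nuclei in treated wells to nuclei in vehicle wells, taken as the median of duplicate plates.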

FG-4592 + Olaparib = compound: Cc1nc(C(=O)NCC(=O)O)c(O)c2ccc(Oc3ccccc3)cc12 [FG-4592] + O=C(c1cc(Cc2n[nH]c(=O)c3ccccc23)ccc1F)N1CCN(C(=O)C2CC2)CC1 [Olaparib] (partner 8 µM)
Method in brief: as §1

FG-4592 + Pemetrexed = compound: Cc1nc(C(=O)NCC(=O)O)c(O)c2ccc(Oc3ccccc3)cc12 [FG-4592] + Nc1nc2[nH]cc(CCc3ccc(C(=O)N[C@@H](CCC(=O)O)C(=O)O)cc3)c2c(=O)[nH]1 [Pemetrexed] (partner 0.2 µM)
Method in brief: as §1

IU1-47 + Linsitinib = compound: CC1=CC(=C(N1C2=CC=C(C=C2)Cl)C)C(=O)CN3CCCCC3 [IU1-47] + C[C@]1(O)C[C@@H](c2nc(-c3ccc4ccc(-c5ccccc5)nc4c3)c3c(N)nccn32)C1 [Linsitinib] (partner 1 µM)
Method in brief: as §1

Cell Line	relative viability (FG-4592 + Crizotinib; first compound 0.08 µM)	relative viability (FG-4592 + Crizotinib; first compound 0.253 µM)	relative viability (FG-4592 + Crizotinib; first compound 0.8 µM)	relative viability (FG-4592 + Crizotinib; first compound 2.53 µM)	relative viability (FG-4592 + Crizotinib; first compound 8 µM)	relative viability (FG-4592 + Olaparib; first compound 0.08 µM)	relative viability (FG-4592 + Olaparib; first compound 0.253 µM)	relative viability (FG-4592 + Olaparib; first compound 0.8 µM)	relative viability (FG-4592 + Olaparib; first compound 2.53 µM)	relative viability (FG-4592 + Olaparib; first compound 8 µM)	relative viability (FG-4592 + Pemetrexed; first compound 0.08 µM)	relative viability (FG-4592 + Pemetrexed; first compound 0.253 µM)	relative viability (FG-4592 + Pemetrexed; first compound 0.8 µM)	relative viability (FG-4592 + Pemetrexed; first compound 2.53 µM)	relative viability (FG-4592 + Pemetrexed; first compound 8 µM)	relative viability (IU1-47 + Linsitinib; first compound 0.08 µM)	relative viability (IU1-47 + Linsitinib; first compound 0.253 µM)	relative viability (IU1-47 + Linsitinib; first compound 0.8 µM)	relative viability (IU1-47 + Linsitinib; first compound 8 µM)	relative viability (IU1-47 + Linsitinib; first compound 2.53 µM)
NCI-H1734	0.638	0.711	0.674	0.595	0.643	0.597	0.61	0.664	0.68	0.605	0.407	0.408	0.419	0.422	0.397	0.883	0.954	0.876	0.781	–
NCI-H2126	0.989	1.01	1.04	1	1.03	0.964	0.846	0.857	0.876	0.919	0.701	0.583	0.656	0.609	0.696	0.733	0.76	0.74	0.778	0.531
EMC-BAC-2	0.736	0.749	0.813	0.772	0.731	0.469	0.491	0.456	0.49	0.492	0.407	0.407	0.447	0.434	0.423	0.857	0.829	0.841	0.774	0.864
NCI-H1993	0.969	0.873	0.919	0.834	0.828	0.947	0.926	–	1.01	0.929	0.644	0.48	–	0.487	0.594	0.762	0.732	0.749	0.73	0.76
NCI-H520	0.731	0.652	0.932	0.758	0.586	0.361	0.342	0.303	0.391	0.385	0.62	0.766	0.774	0.8	0.698	0.849	1.13	0.934	0.666	0.974
NCI-H647	0.941	1.04	1.01	1.17	1.03	0.597	0.533	0.489	0.635	0.416	0.165	0.14	0.211	0.161	0.15	1.22	1.2	1.12	1.01	1.19
NCI-H1792	0.96	0.764	0.812	1.01	0.975	0.487	0.432	–	0.457	0.497	0.691	0.76	–	0.619	0.651	0.615	0.581	0.449	0.336	0.299
SK-LU-1	0.806	0.731	0.912	–	0.968	0.322	0.396	0.491	0.444	0.472	0.949	0.842	1.05	1.06	1.05	1.16	1.08	1.32	1.17	1.16
NCI-H2009	1.14	0.967	1.01	0.953	0.98	0.663	0.637	0.715	0.718	0.621	1.01	1.16	1	1.02	1.06	1.19	1.19	1.13	1.24	1.24
LOU-NH91	0.738	0.677	0.716	0.727	0.715	0.93	0.85	0.902	0.959	0.953	0.465	0.336	0.468	0.405	0.407	1.07	1.06	0.939	0.868	0.907
NCI-H2405	0.665	0.657	0.878	0.857	0.87	0.752	0.772	0.948	0.809	0.859	0.81	1.01	0.949	0.792	0.984	1.02	1.1	1.01	0.932	–
LCLC-97TM1	0.347	0.342	0.372	–	0.435	0.444	0.417	–	0.329	0.421	0.189	0.152	–	0.145	0.171	0.177	0.228	0.168	0.175	–
NCI-H596	1.02	0.898	–	0.806	0.778	0.663	0.641	–	0.708	0.625	0.455	0.521	–	0.538	0.457	1.17	1.11	1.02	0.934	0.984
H3255	0.963	0.79	0.827	0.917	1.05	0.586	0.546	0.611	0.629	0.622	0.586	0.538	0.567	0.573	0.56	1.16	1.17	0.957	0.914	0.905
SK-MES-1	0.913	0.854	1	1.03	1	0.655	0.624	0.786	0.748	0.66	0.88	0.833	0.927	0.906	0.917	1.13	1.31	1.12	1.11	1.01
NCI-H1437	0.95	0.911	1.03	0.936	0.879	0.581	0.602	0.679	0.651	0.6	0.32	0.31	0.349	0.32	0.274	1.11	1.02	0.959	0.704	1.01
LU99A	0.534	0.523	0.543	0.558	0.58	0.268	0.242	–	0.276	0.29	0.184	0.199	–	0.182	0.199	0.538	0.511	0.656	0.54	0.602
